Laboratory results published in patent US20260274869A1, “PREPARATION METHODS OF ETHER-BONDED PORPHYRIN DIMER ESTER AND SINOPORPHYRIN SODIUM, PHARMACEUTICAL COMPOSITIONS CONTAINING THEM AND THEIR USES” (SHANGHAI GUANGSHENG BIOPHARMACEUTICAL CO., LTD, priority 2024, published 2026).

Assay: storage stability / shelf life of sinoporphyrin sodium prepared by the method
Type: physicochemical
Conditions: sinoporphyrin sodium prepared by the disclosed method; storage conditions not given

purity with the extension of storage time (storage stability): does not decrease significantly
shelf life: more than 24 months
Compound: C=Cc1c(C)c2cc3nc(cc4nc(cc5[nH]c(cc1[nH]2)c(C)c5C(C)OC(C)c1c(C)c2cc5[nH]c(cc6nc(cc7nc(cc1[nH]2)C(C)=C7CCC(=O)[O-])C(CCC(=O)[O-])=C6C)c(C)c5C=C)C(C)=C4CCC(=O)[O-])C(CCC(=O)[O-])=C3C.[Na+].[Na+].[Na+].[Na+] (centres unmarked) [sinoporphyrin sodium, bis[1-[6,7-dipropionatesodium salt-1,3,5,8-tetramethyl-2-vinyl-4-porphyrin]ethyl] ether]
